Experimental findings from ChEMBL document CHEMBL1128915, “2-cyanopyrrolidides as potent, stable inhibitors of dipeptidyl peptidase IV” (Bioorg Med Chem Lett, 1996) are described below.

Dipeptidyl peptidase 4, sequence (P27487 whole entry): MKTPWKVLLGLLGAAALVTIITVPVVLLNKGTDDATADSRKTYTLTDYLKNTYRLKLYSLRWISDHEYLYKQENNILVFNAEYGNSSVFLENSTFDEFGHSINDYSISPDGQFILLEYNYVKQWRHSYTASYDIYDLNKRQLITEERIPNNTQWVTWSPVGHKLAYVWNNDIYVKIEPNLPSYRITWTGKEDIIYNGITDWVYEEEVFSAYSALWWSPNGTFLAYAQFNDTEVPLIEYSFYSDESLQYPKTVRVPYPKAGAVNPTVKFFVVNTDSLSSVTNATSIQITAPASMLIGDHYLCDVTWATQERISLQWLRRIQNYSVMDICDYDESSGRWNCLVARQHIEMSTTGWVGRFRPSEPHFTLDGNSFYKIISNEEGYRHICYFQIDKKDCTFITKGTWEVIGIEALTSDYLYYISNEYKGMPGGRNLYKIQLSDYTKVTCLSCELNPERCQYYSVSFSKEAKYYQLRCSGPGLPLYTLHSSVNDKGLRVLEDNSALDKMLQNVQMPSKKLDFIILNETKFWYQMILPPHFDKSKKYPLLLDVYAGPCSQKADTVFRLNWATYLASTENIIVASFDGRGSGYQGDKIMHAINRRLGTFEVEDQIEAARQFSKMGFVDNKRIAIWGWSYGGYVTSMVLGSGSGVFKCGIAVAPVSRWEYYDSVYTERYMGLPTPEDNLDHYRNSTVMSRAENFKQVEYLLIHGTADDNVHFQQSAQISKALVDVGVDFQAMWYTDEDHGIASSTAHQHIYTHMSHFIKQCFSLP

Test system in one data set: not listed separately
The data set is described as follows: Half-life in aqueous solution(pH 7.4). Type of data set: ADME.
The half-life is the time in which the quantity being followed falls by half. Consider `CC[C@H](C)[C@H](N)C(=O)N1CCC[C@H]1C#N`, for which the half-life was 48 h.
Still for that read-out and setting: the result for `N#C[C@@H]1CCCN1C(=O)[C@@H]1CCCN1` reads 7.5 h.
On the same count and under the same terms, the result for `CC(C)(C)[C@H](N)C(=O)N1CCC[C@H]1C#N` reads more than 48 h; that for `N#C[C@@H]1CCCN1C(=O)[C@@H](N)C1CCCCC1`, more than 48 h; that for `N#C[C@@H]1CCCN1C(=O)[C@@H](N)CCCCN`, 24 h.
Still for that read-out and setting: the figure for `C[C@H](N)C(=O)N1CCC[C@H]1B(O)O` is 0.5 h.
For `O=C([C@@H]1CCCN1)N1CCC[C@H]1B(O)O`, the half-life worked out at 1.5 h.

A further data set has as its target Dipeptidyl peptidase 4 (Homo sapiens, UniProt P27487). The data set is described as follows: In vitro test for inhibitory activity against human dipeptidyl peptidase IV.
By Ki is commonly meant the dissociation constant of the complex between target and ligand, obtained from inhibition or displacement. A higher Ki goes with lower affinity. On to `O=C([C@H](CO)NCc1ccccc1)N1CCCC1`, for which affinity was put at a Ki of 6000 nM.
`N[C@@H](CCC(=O)O)C(=O)N1CCCC1` displayed a Ki of 2000 nM. This Ki is about 3-fold lower than that of the molecule before.
Still for that read-out and setting: the result for `NC(C(=O)N1CCCC1)C1CCCC1` (configuration not stated) reads 210 nM; that for `N[C@@H](CCC(=O)OCc1ccccc1)C(=O)N1CCCC1`, 2700 nM; that for `NCCCC[C@H](NC(=O)OCc1ccccc1)C(=O)N1CCCC1`, 520 nM.
Molecule `C[C@H](N)C(=O)N1CCCC1` had a Ki of 7000 nM. Compared with the last molecule, the Ki is about 13-fold higher.
For `N[C@@H](CC(=O)O)C(=O)N1CCCC1`, the affinity, expressed as Ki, was 14500 nM.
The molecule `N#C[C@@H]1CCCN1C(=O)[C@@H](N)CCCCN` registered a Ki of 5.2 nM. This Ki lies about 2800-fold lower than the previous one.
Same read-out and setting: the result for `N[C@H](C(=O)N1CCCC1)c1ccccc1` reads 5300 nM.
As for `CCCC[C@H](N)C(=O)N1CCCC1`, the Ki was 1200 nM.
Still for that read-out and setting: the result for `CC(C)(C)[C@H](N)C(=O)N1CCCC1` reads 880 nM; that for `NCCC[C@H](NC(=O)OCc1ccccc1)C(=O)N1CCCC1`, 910 nM.
As to `O=C([C@@H]1CCCN1)N1CCC[C@H]1B(O)O`, the affinity corresponds to a Ki of 3 nM.
Still for that read-out and setting: the result for `CNC(C(=O)N1CCCC1)[C@H](C)O` (some centres not stated) reads 900 nM; that for `C[C@@H](O)[C@H](N)C(=O)N1CCCC1`, 4900 nM.
